Laboratory results as given in article PMC4376724, “Differential Phenotypic and Functional Profiles of TcCA-2 -Specific Cytotoxic CD8^+ T Cells in the Asymptomatic versus Cardiac Phase in Chagasic Patients” (PLoS ONE, 2015).

Assays:
[1] = tested on: PBMC from HLA-A*02:01 Chagas disease patients and healthy donors; experiment: Cytokine secretion test (Bio-Plex multiplex immunoassay) in PBMC supernatants; format: cell-based, human; conditions: 1 μM peptide, 30 h; for IFNγ / IL6 / TNFα: non-peptide control subtracted
Experimental: (§1) For the screening of the recognition of TcCA-2 epitopes by Chagas disease patients, 10 HLA-A*02:01 adult patients in the asymptomatic phase of the disease (IND) were enrolled. For cytotoxicity, functional activity determinations and phenotypic characterization another group of 19 HLA-A*02:01 adults Chagas disease patients and 9 healthy donors were analyzed. These patients were at the chronic stage of the disease and were considered to be at the asymptomatic phase (IND, n = 8) if there was no evidence of having cardiac or gastrointestinal disorders. Chronic Chagas cardiomyopathy patients (CCC, n = 11) were stratified into G1 to G3 stages following Kuschnir classification according to clinical criteria and radiological, electrocardiographic and echocardiography analyses. The number of patients was the one recommended by the Hospital Ethical Committee. […] The patients were enrolled in both studies (functional and phenotypic characterization, IND n = 6 and CCC n = 7) when the available number of purified PBMC (limited by the cellular number isolated from each subject) was enough for both analyses. Another four CCC patients had to be enrolled to perform the phenotypic analysis in order to reach statistical significance.
(§2) Cytokine secretion (IL-4, IL-10, IL-6, IFN-γ, TNF-α) was determined in the supernatants of PBMC from Chagas disease patients and healthy donors, after in vitro stimulation with 1 μM of each peptide for 30 h at 37°C in RPMI supplemented with 10% iFBS as explained before. The secretion profile was determined by using a bead-based multiplex immunoassay system (Bio-Plex, Bio-Rad), following the manufacturer's instructions. The response was considered positive if an increase in the secretion of cytokines was at least three folds higher than the secretion by un-stimulated cells (basal secretion level) and at least, 4 pg/mL for IL-4, 2 pg/mL for IL-10, 15 pg/mL for IL-6 and 5 pg/mL for IFN-γ and TNF-α. The positive control consisted of 50 ng/mL Phorbol 12 myristate 13-acetate (PMA) and 500 ng/mL ionomycin (Sigma). Cytokine levels were quantified in each sample by using the Bio-Plex Manager software 4.1 (Bio-Rad).
Functional analysis of the epitope-specific CD8^+ T cells was carried out by the determination of the secretion profile of IFN-γ, TNF-α, IL-4, IL10 and IL-6 cytokines. […] CD8^+ T cells from 2 out of 11 patients responded to stimulation with peptide TcCA-2_273-281 by secreting IL-6. […] There was no secretion of IL-4 and IL-10 in PBMC after stimulation with any one of the four TcCA-2 peptides (data not shown). IFN-γ, TNF-α and IL6 cytokines secretion levels were higher in patients at the asymptomatic phase of the disease than in Chagas patients with associated cardiomyopathy.

[2] = tested on: PBMCs from asymptomatic HLA-A*02:01 Chagas disease patients; experiment: HLA-A*02:01 restriction assay: peptide-pulsed K562-A2 cells as APC, IFN-γ secretion by patient PBMC; format: cell-based, human; conditions: range among patients with a positive response; K562-A2 pulsed with 1 mM peptide 1 h, 30 h co-culture; K562 level subtracted
Experimental: TAP-deficient T2 cells were used for the HLA-A*02:01 binding assays and the K562-A2 cells for the HLA-A*02:01 restriction assay. The cells were cultured in complete RPMI medium supplemented with 10% of inactivated Fetal Calf Serum (iFCS), 2 mM glutamine, and 100 U/ml penicillin. K562-A2 cells, expressing the HLA-A*02:01 molecule were cultured in the presence of […] of G-418, as previously described. The T2 and K562-A2 cells were kindly provided by Dr. Pedro Romero (University of Lausanne) and by Dr Peter Ponsaerts (University of Antwerp, with the permission of Dr. Cedrik Britten from Johanes Gutenberg-University Mainz), respectively.
as §1
as §2, with “(Bio-Rad). […]” for “(Bio-Rad).”

## AAAGDKLSL [TcCA-2_273-281]
[1]; PBMC of Chagas patients, same positivity criteria
  Patients whose cells responded by secreting IL-6: 2 out of 11
[1]; PBMC of patient CCC I 456
  IFNγ: 0 pg/mL
  IL6: 0 pg/mL
  TNFα: 0 pg/mL
[1]; PBMC of patient CCC I 770
  IFNγ: 0 pg/mL
  IL6: 22 pg/mL
  TNFα: 4 pg/mL
[1]; PBMC of patient CCC I 861
  IFNγ: 2 pg/mL
  IL6: -4 pg/mL
  TNFα: -2 pg/mL
[1]; PBMC of patient CCC I 884
  IFNγ: 0 pg/mL
  IL6: 0 pg/mL
  TNFα: 0 pg/mL
[1]; PBMC of patient CCC III 509
  IFNγ: 0 pg/mL
  IL6: -4 pg/mL
  TNFα: -5 pg/mL
[1]; PBMC of patient IND 365
  IFNγ: 1 pg/mL
  IL6: 43 pg/mL
  TNFα: -6 pg/mL
[1]; PBMC of patient IND 388
  IFNγ: 2 pg/mL
  IL6: 36 pg/mL
  TNFα: 7 pg/mL
[1]; PBMC of patient IND 510
  IFNγ: 0 pg/mL
  IL6: 1 pg/mL
  TNFα: -1 pg/mL
[1]; PBMC of patient IND 535
  IFNγ: 0 pg/mL
  IL6: -5 pg/mL
  TNFα: -1 pg/mL
[1]; PBMC of patient IND 571
  IFNγ: 0 pg/mL
  IL6: 0 pg/mL
  TNFα: 0 pg/mL
[1]; PBMC of patient IND 917
  IFNγ: 7 pg/mL
  IL6: 18 pg/mL
  TNFα: 11 pg/mL
[1]; PBMC of subject HD 001
  IFNγ: 6 pg/mL
  IL6: 1 pg/mL
  TNFα: -8 pg/mL
[1]; PBMC of subject HD 004
  IFNγ: 0 pg/mL
  IL6: -9 pg/mL
  TNFα: 0 pg/mL
[1]; PBMC of subject HD 005
  IFNγ: -19 pg/mL
  IL6: -183 pg/mL
  TNFα: -11 pg/mL
[1]; PBMC of subject HD 006
  IFNγ: 6 pg/mL
  IL6: 1 pg/mL
  TNFα: 2 pg/mL
[1]; PBMC of subject HD 008
  IFNγ: -1 pg/mL
  IL6: 9 pg/mL
  TNFα: 0 pg/mL
[1]; PBMC of subject HD 011
  IFNγ: 0 pg/mL
  IL6: -11 pg/mL
  TNFα: -8 pg/mL
[1]; PBMC of subject HD 340
  IFNγ: 0 pg/mL
  IL6: 9 pg/mL
  TNFα: 4 pg/mL
[1]; PBMC of subject HD 664
  IFNγ: -3 pg/mL
  IL6: 0 pg/mL
  TNFα: 0 pg/mL
[2]
  INF-γ secretion range: 8.6 pg/mL

## ALRNLRVFL [TcCA-2_607-615]
[1]; PBMC of Chagas patients, positive = at least three folds non-peptide control and ≥15 pg/mL IL-6, ≥5 pg/mL IFN-γ and TNF-α
  Patients whose cells recognized the peptide by secreting IFN-γ, TNF-α and IL-6: 2 out of the 14
[1]; PBMC of patient CCC I 456
  IFNγ: 3 pg/mL
  IL6: 18 pg/mL
  TNFα: 12 pg/mL
[1]; PBMC of patient CCC I 770
  IFNγ: 0 pg/mL
  IL6: 49 pg/mL
  TNFα: 16 pg/mL
[1]; PBMC of patient CCC I 861
  IFNγ: 0 pg/mL
  IL6: -7 pg/mL
  TNFα: -3 pg/mL
[1]; PBMC of patient CCC I 884
  IFNγ: 0 pg/mL
  IL6: 0 pg/mL
  TNFα: 0 pg/mL
[1]; PBMC of patient CCC II 142
  IFNγ: 0 pg/mL
  IL6: -4 pg/mL
  TNFα: -15 pg/mL
[1]; PBMC of patient CCC III 509
  IFNγ: 0 pg/mL
  IL6: -5 pg/mL
  TNFα: -4 pg/mL
[1]; PBMC of patient CCC III 797
  IFNγ: -5 pg/mL
  IL6: 9 pg/mL
  TNFα: 3 pg/mL
[1]; PBMC of patient IND 265
  IFNγ: 81 pg/mL
  IL6: 1127 pg/mL
  TNFα: 83 pg/mL
[1]; PBMC of patient IND 283
  IFNγ: 15 pg/mL
  IL6: 55 pg/mL
  TNFα: 26 pg/mL
[1]; PBMC of patient IND 365
  IFNγ: 5 pg/mL
  IL6: 23 pg/mL
  TNFα: 23 pg/mL
[1]; PBMC of patient IND 388
  IFNγ: 1 pg/mL
  IL6: 32 pg/mL
  TNFα: -11 pg/mL
[1]; PBMC of patient IND 510
  IFNγ: 0 pg/mL
  IL6: -1 pg/mL
  TNFα: 2 pg/mL
[1]; PBMC of patient IND 535
  IFNγ: 0 pg/mL
  IL6: -5 pg/mL
  TNFα: -1 pg/mL
[1]; PBMC of patient IND 917
  IFNγ: 1 pg/mL
  IL6: -2 pg/mL
  TNFα: -3 pg/mL
[1]; PBMC of subject HD 001
  IFNγ: 1 pg/mL
  IL6: -6 pg/mL
  TNFα: -14 pg/mL
[1]; PBMC of subject HD 004
  IFNγ: 0 pg/mL
  IL6: -5 pg/mL
  TNFα: 0 pg/mL
[1]; PBMC of subject HD 005
  IFNγ: -21 pg/mL
  IL6: -77 pg/mL
  TNFα: -2 pg/mL
[1]; PBMC of subject HD 006
  IFNγ: 13 pg/mL
  IL6: 69 pg/mL
  TNFα: 5 pg/mL
[1]; PBMC of subject HD 008
  IFNγ: 3 pg/mL
  IL6: 22 pg/mL
  TNFα: 0 pg/mL
[1]; PBMC of subject HD 011
  IFNγ: 0 pg/mL
  IL6: -12 pg/mL
  TNFα: -8 pg/mL
[1]; PBMC of subject HD 340
  IFNγ: 0 pg/mL
  IL6: 6 pg/mL
  TNFα: 0 pg/mL
[1]; PBMC of subject HD 664
  IFNγ: -3 pg/mL
  IL6: 0 pg/mL
  TNFα: 0 pg/mL
[2]
  INF-γ secretion range: 6.4 to 15.1 pg/mL
